The source of these data is patent US10781204B2, “TYK2 inhibitors and uses thereof” (Nimbus Lakshmi, Inc., priority 2015, dated 2020).

One experiment deals with TYK2 (Homo sapiens (Human), UniProt P29597). In words: Tyk2 radioactive kinase assay. The following applies: ATP 10 μM. The format is biochemical. The method in brief:
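Recombinant human TYK2 (Invitrogen) was mixed with 20 μM peptide substrate in a buffer of 20 mM Hepes pH 7.5, 10 mM MgCl2, 1 mM EGTA, 0.02% Brij35, 0.02 mg/mL BSA, 0.1 mM […], 2 mM DTT and 1% DMSO, and compounds in DMSO were added. Adding ^33P-ATP (10 μM ATP) started the reaction, which ran 120 min at room temperature. Mixtures were then spotted onto P81 ion-exchange paper, washed thoroughly in 0.75% phosphoric acid, and counted for radioactivity.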

The next experiment addresses JAK2 (Homo sapiens (Human), UniProt O60674). In words: JAK2 radioactive kinase assay. The experiment is classed as biochemical. The following applies: ATP 10 μM. In a few lines: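 Radiometric assay in Hepes pH 7.5, MgCl2, EGTA, Brij35, BSA, DTT, 1% DMSO, with 10 μM [33P]ATP, 120 min at room temp; P81 paper capture and counting. […]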
For experiment [1], the system named is Tyk2-pSTAT4 (IL-12 induced pSTAT4). In words: IL-12 induced pSTAT4 in human PBMC. The format is cell-based. The following applies: Homo sapiens, PBMC, 0.5 h, 1.7 ng/mL IL-12, 30 minutes. In a few lines: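 Thawed human PBMC (200,000 cells/well, serum-containing medium) preincubated with compound 1 hr at 37 C, 0.1% DMSO final. Stimulated with 1.7 ng/mL IL-12 (final) for 30 minutes; pSTAT4 and total STAT4 in lysates measured by MSD immunoassay.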

Experiment [2] deals with JAK2-pSTAT5 (GM-CSF induced pSTAT5). In words: GM-CSF induced pSTAT5 in human PBMC. The format is cell-based. The following applies: Homo sapiens, PBMC, 20 min, 5 ng/mL GM-CSF. In a few lines:
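Thawed human PBMC, 200,000 per well in serum-containing medium, were preincubated 1 hr at 37 C with compound in 0.1% DMSO. GM-CSF at 5 ng/mL final was added for 20 minutes, then pSTAT5 and total STAT5 in lysates were measured by MSD immunoassay.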

Molecules are shown by their SMILES.

The term Ki denotes a measure of affinity in units of concentration, obtained from inhibition or displacement. The EC50 is the midpoint of the concentration-response curve. Read a low EC50 as higher potency in that assay.

Chain of TYK2 (P29597 whole entry): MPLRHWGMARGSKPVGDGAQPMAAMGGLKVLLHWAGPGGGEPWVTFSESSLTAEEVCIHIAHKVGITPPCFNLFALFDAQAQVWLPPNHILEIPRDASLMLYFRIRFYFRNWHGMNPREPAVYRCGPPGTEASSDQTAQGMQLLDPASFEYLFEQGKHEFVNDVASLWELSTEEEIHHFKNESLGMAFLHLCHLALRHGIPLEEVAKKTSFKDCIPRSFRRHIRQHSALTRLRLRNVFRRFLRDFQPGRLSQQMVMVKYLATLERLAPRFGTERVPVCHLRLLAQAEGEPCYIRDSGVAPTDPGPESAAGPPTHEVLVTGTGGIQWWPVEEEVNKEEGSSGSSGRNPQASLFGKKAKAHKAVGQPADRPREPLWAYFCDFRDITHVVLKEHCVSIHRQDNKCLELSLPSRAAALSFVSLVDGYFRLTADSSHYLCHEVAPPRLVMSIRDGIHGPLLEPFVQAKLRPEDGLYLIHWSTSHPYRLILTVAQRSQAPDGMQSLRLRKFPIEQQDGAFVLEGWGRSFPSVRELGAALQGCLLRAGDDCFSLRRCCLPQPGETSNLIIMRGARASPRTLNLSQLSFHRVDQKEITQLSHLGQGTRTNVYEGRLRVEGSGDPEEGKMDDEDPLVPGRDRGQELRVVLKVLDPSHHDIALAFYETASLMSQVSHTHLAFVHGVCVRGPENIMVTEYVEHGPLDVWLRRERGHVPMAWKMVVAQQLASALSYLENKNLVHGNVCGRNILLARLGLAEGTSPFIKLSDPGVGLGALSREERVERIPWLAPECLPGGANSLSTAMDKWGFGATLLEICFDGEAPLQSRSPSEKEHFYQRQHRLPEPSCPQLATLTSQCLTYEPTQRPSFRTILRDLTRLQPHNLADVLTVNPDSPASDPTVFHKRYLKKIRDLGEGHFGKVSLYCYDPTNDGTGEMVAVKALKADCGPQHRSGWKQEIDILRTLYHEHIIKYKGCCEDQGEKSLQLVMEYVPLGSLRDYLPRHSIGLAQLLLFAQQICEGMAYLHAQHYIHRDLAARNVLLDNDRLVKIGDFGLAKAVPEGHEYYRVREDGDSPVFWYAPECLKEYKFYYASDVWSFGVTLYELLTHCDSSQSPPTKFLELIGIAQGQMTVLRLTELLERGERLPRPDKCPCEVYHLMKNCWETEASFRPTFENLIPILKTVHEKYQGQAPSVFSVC
Chain of JAK2 (O60674 whole entry): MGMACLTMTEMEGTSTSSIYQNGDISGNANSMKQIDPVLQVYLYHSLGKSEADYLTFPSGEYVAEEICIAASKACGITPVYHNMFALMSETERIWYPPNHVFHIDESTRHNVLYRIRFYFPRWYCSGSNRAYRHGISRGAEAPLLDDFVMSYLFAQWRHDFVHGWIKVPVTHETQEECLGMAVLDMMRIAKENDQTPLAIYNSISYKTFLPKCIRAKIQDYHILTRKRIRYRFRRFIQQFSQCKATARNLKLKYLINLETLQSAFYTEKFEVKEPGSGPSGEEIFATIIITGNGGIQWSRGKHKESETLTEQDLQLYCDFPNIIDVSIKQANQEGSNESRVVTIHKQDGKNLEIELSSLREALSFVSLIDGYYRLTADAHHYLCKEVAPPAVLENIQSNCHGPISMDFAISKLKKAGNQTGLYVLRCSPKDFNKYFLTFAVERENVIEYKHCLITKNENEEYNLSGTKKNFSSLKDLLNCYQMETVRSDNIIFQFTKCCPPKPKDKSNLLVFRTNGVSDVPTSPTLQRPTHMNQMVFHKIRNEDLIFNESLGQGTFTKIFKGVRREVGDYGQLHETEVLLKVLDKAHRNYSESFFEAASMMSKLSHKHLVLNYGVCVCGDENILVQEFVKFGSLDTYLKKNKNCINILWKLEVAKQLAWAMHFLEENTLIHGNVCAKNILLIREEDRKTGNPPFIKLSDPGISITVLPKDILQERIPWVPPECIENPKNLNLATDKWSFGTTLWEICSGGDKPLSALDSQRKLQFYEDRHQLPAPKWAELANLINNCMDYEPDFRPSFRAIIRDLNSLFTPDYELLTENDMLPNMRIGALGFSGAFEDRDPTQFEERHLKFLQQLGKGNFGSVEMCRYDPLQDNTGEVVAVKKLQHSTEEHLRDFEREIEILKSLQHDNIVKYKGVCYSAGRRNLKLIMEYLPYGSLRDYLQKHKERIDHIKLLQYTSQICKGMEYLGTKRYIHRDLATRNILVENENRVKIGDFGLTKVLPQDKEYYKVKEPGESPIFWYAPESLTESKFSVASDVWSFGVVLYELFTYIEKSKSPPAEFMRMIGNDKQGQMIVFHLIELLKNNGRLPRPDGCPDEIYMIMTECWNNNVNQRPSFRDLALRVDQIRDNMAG

Take `N#Cc1cccc(F)c1-c1cc(-n2ccc(N3CCC[C@H](O)[C@H](O)C3)n2)c2c(n1)CNC2=O` [I-178, 2-(4-(3-((3R,4S)-3,4-dihydroxyazepan-1-yl)-1H-pyrazol-1-yl)-5-oxo-6,7-dihydro-5H-pyrrolo[3,4-b]pyridin-2-yl)-3-fluorobenzonitrile]: the results for the Ki on TYK2 and on JAK2 were 0.1 to 10 nM and 10 to 100 nM, respectively. Besides, the figures for the EC50 in experiment [1] and in experiment [2] were 100 to 2000 nM and above 2000 nM, respectively.

For the compound `N#Cc1cccc(F)c1-c1cc(-n2ccc(N3CCC[C@@H](O)[C@@H](O)C3)n2)c2c(n1)CNC2=O` [I-179, 2-(4-(3-((3S,4R)-3,4-dihydroxyazepan-1-yl)-1H-pyrazol-1-yl)-5-oxo-6,7-dihydro-5H-pyrrolo[3,4-b]pyridin-2-yl)-3-fluorobenzonitrile], the Ki on TYK2 lay in the range of 0.1 to 10 nM; at JAK2, 10 to 100 nM. Further, the EC50 in experiment [1] is 30 to 100 nM; in experiment [2], above 2000 nM.

For `CO[C@H]1CN(c2ccn(-c3cc(-c4c(F)cccc4C#N)nc4c3C(=O)NC4)n2)CC[C@H]1O` [I-181, 3-fluoro-2-(4-(3-((3S,4R)-4-hydroxy-3-methoxypiperidin-1-yl)-1H-pyrazol-1-yl)-5-oxo-6,7-dihydro-5H-pyrrolo[3,4-b]pyridin-2-yl)benzonitrile], the Ki was 0.1 to 10 nM on TYK2 and 10 to 100 nM on JAK2. The EC50 in experiment [1] and in experiment [2] was 100 to 2000 nM in each case.

For the compound `[2H]C1([2H])C[C@@](O)(C([2H])([2H])[2H])C([2H])([2H])N1c1ccn(-c2cc(-c3c(F)cccc3C#N)nc3c2C(=O)NC3)n1` [I-183, (S)-3-fluoro-2-(4-(3-(3-hydroxy-3-(methyl-d3)pyrrolidin-1-yl-2,2,5,5-d4)-1H-pyrazol-1-yl)-5-oxo-6,7-dihydro-5H-pyrrolo[3,4-b]pyridin-2-yl)benzonitrile], the Ki on TYK2 and on JAK2 was 0.1 to 10 nM each time. Besides, the EC50 in experiment [1] lay within 30 to 100 nM; in experiment [2], 100 to 2000 nM.

As to `[2H]C1([2H])C[C@](O)(C([2H])([2H])[2H])C([2H])([2H])N1c1ccn(-c2cc(-c3c(F)cccc3C#N)nc3c2C(=O)NC3)n1` [I-184, (R)-3-fluoro-2-(4-(3-(3-hydroxy-3-(methyl-d3)pyrrolidin-1-yl-2,2,5,5-d4)-1H-pyrazol-1-yl)-5-oxo-6,7-dihydro-5H-pyrrolo[3,4-b]pyridin-2-yl)benzonitrile], the Ki at TYK2 and at JAK2 was 0.1 to 10 nM each time. Also, the 50% effective concentration (EC50) was 30 to 100 nM in experiment [1] and 100 to 2000 nM in experiment [2].

`N#Cc1cccc(F)c1-c1cc(-n2cc(F)c(N3CCC(O)C3)n2)c2c(n1)CNC2=O` (centres unmarked) [I-185, 3-fluoro-2-(4-(4-fluoro-3-(3-hydroxypyrrolidin-1-yl)-1H-pyrazol-1-yl)-5-oxo-6,7-dihydro-5H-pyrrolo[3,4-b]pyridin-2-yl)benzonitrile]: the figures for the Ki on TYK2 and on JAK2 were 0.1 to 10 nM and 10 to 100 nM, respectively. The EC50 in experiment [1] and in experiment [2] was 100 to 2000 nM each time.

For the compound `[2H]C1([2H])N(c2ccn(-c3cc(-c4c(F)cccc4C#N)nc4c3C(=O)NC4)n2)C([2H])([2H])C(C)(O)C([2H])([2H])C1([2H])[2H]` (centres unmarked) [I-186, 3-fluoro-2-(4-(3-(3-hydroxy-3-methylpiperidin-1-yl-2,2,4,4,5,5,6,6-d8)-1H-pyrazol-1-yl)-5-oxo-6,7-dihydro-5H-pyrrolo[3,4-b]pyridin-2-yl)benzonitrile], the Ki lay in the range of 0.1 to 10 nM on TYK2 and 10 to 100 nM at JAK2. The EC50 in experiment [1] was 100 to 2000 nM; in experiment [2], above 2000 nM.

As to `N#Cc1cccc(F)c1-c1cc(-n2ccc(N3C[C@H]4CC[C@@H](C3)O4)n2)c2c(n1)CNC2=O` [I-188, 2-(4-(3-((1R,5S)-8-oxa-3-azabicyclo[3.2.1]octan-3-yl)-1H-pyrazol-1-yl)-5-oxo-6,7-dihydro-5H-pyrrolo[3,4-b]pyridin-2-yl)-3-fluorobenzonitrile], the values for the Ki on TYK2 and on JAK2 were 0.009 to 0.1 nM and 0.1 to 10 nM, respectively. Further, the EC50 in experiment [1] and in experiment [2] was 100 to 2000 nM each time.
